Test results reported in ChEMBL document CHEMBL1145392, “Natural feruloyl monoglyceride macrocycles as protecting factors against free-radical damage of lipidic membranes” (Bioorg Med Chem Lett, 2007).
Calls of active or inactive are those of the source.

Tests used:
Format in all cases: functional
[1] = test system: Liver microsomes; assay: Inhibition of lipid peroxidation activity in Wistar rat liver microsomes by TBRAS assay; details: Microsome
[2] = Hydrogen peroxide radical scavenging activity
[3] = Superoxide radical scavenging activity assessed as NBT reduction

Measured: Activity

COc1cc(/C=C\C(=O)OCC2COC(=O)CCCCCCCCCCCCCCCCCCCCCCCCCCCCCCCCCO2)ccc1O (configuration not stated)
active: [1] | [2] | [3]

COc1cc(/C=C/C(=O)OCC2COC(=O)CCCCCCCCCCCCCCCCCCCCO2)ccc1O (configuration not stated)
active: [1] | [2] | [3]

COc1cc(/C=C/C(=O)OCC2COC(=O)CCCCCCCCCCCCCCCCCCCCCCCCCCCCO2)ccc1O (configuration not stated)
active: [1] | [2] | [3]

COc1cc(/C=C/C(=O)OCC2COC(=O)CCCCCCCCCCCCCCCCCCCCCCCO2)ccc1O (configuration not stated)
active: [1] | [2] | [3]

COc1cc(/C=C/C(=O)OCC2COC(=O)CCCCCCCCCCCCCCCCCCCCCCCCCCCCCO2)ccc1O (configuration not stated)
active: [1] | [2] | [3]

COc1cc(/C=C/C(=O)OCC2COC(=O)CCCCCCCCCCCCCCCCCCCCCCCCCCO2)ccc1O (configuration not stated)
active: [1] | [2] | [3]

COc1cc(/C=C\C(=O)OCC2COC(=O)CCCCCCCCCCCCCCCCCCCCCCCCO2)ccc1O (configuration not stated)
active: [1] | [2] | [3]

COc1cc(/C=C/C(=O)OCC2COC(=O)CCCCCCCCCCCCCCCCCCO2)ccc1O (configuration not stated)
active: [1] | [2] | [3]

COc1cc(/C=C/C(=O)OCC2COC(=O)CCCCCCCCCCCCCCCCCCCCCCCCO2)ccc1O (configuration not stated)
active: [1] | [2] | [3]
